Key:
JNK2 = JNK2 (Homo sapiens, UniProt P45984); test: Kinase profiling, single-dose in vitro kinase assay (Caliper Life Sciences); details: read-out: Average % Inhibition JNK2
ABL = ABL (Homo sapiens, UniProt P00519); test: as above; details: read-out: Average % Inhibition ABL
PKG1β = PKG1β (Homo sapiens, UniProt Q13976); test: as above; details: read-out: Average % Inhibition PKG1β
p70S6K = p70S6K (Homo sapiens, UniProt P23443); test: as above; details: read-out: Average % Inhibition p70S6K
CHK2 = CHK2 (Homo sapiens, UniProt O96017); test: as above; details: read-out: Average % Inhibition CHK2
PKCδ = target: T1, PKCδ (Homo sapiens, UniProt Q05655); set-up: method as in PMID 18829454; details: previously reported; cited from earlier work
T1 construct: purchased Enzo Life Sciences

[1] = system: protein kinase B (AKT/PKB); set-up: method as in PMID 18829454; details: previously reported; cited from earlier work
PKCα = target: T2, PKCα (Homo sapiens, UniProt P17252); set-up: method as in PMID 18829454; details: previously reported; cited from earlier work
T2 construct: purchased Cell Signaling Technology and Calbiochem

PKG1α = PKG1α (Homo sapiens, UniProt Q13976); test: Kinase profiling, single-dose in vitro kinase assay (Caliper Life Sciences); details: read-out: Average % Inhibition PKG1α
PC3 cells [2] = system: PC3 cells; set-up: method as in PMID 18829454; details: 10 or 25 μM for six days; cited from earlier work
AMPK = test: Kinase profiling, single-dose in vitro kinase assay (Caliper Life Sciences); details: 10 μM
PIM2 = PIM2 (Homo sapiens, UniProt Q9P1W9); test: as above; details: read-out: Average % Inhibition PIM2
MSK1 = MSK1 (Homo sapiens, UniProt O75582); test: as above; details: read-out: Average % Inhibition MSK1
p38a = p38a (Homo sapiens, UniProt Q16539); test: as above; details: read-out: Average % Inhibition p38a
c-Raf = c-Raf (Homo sapiens, UniProt P04049); test: as above; details: read-out: Average % Inhibition c-Raf
PKCβI = target: T3, PKCβI (Homo sapiens, UniProt P05771); set-up: method as in PMID 18829454; details: previously reported; cited from earlier work
T3 construct: purchased Cell Signaling Technology

PKCη = PKCη (Homo sapiens, UniProt P24723); test: Kinase profiling, single-dose in vitro kinase assay (Caliper Life Sciences); details: read-out: Average % Inhibition PKCη
AurA = AurA (Homo sapiens, UniProt O14965); test: as above; details: read-out: Average % Inhibition AurA
CAMKIIα = target: T4, CAMKIIα (Homo sapiens, UniProt Q9UQM7); set-up: method as in PMID 18829454; details: previously reported; cited from earlier work
T4 construct: purchased Enzo Life Sciences

IBSR = IBSR (Homo sapiens, UniProt P06213); test: Kinase profiling, single-dose in vitro kinase assay (Caliper Life Sciences); details: read-out: Average % Inhibition IBSR
PAK2 = PAK2 (Homo sapiens, UniProt Q13177); test: as above; details: read-out: Average % Inhibition PAK2
CAK = system: CAK; set-up: method as in PMID 18829454; details: previously reported; cited from earlier work
IGF1R = IGF1R (Homo sapiens, UniProt P08069); test: Kinase profiling, single-dose in vitro kinase assay (Caliper Life Sciences); details: read-out: Average % Inhibition IGF1R
SYK = SYK (Homo sapiens, UniProt P43405); test: as above; details: read-out: Average % Inhibition SYK
Erk2 = Erk2 (Homo sapiens, UniProt P28482); test: as above; details: read-out: Average % Inhibition Erk2
KDR = KDR (Homo sapiens, UniProt P35968); test: as above; details: read-out: Average % Inhibition KDR
PC3 cells [3] = test: Cell proliferation assay (cell counts, trypan blue); format: cell-based; details: 10 μM, cell counts over six days
Excerpt: Cells were allowed to attach overnight.

Sequence of KDR (P35968 20-1356): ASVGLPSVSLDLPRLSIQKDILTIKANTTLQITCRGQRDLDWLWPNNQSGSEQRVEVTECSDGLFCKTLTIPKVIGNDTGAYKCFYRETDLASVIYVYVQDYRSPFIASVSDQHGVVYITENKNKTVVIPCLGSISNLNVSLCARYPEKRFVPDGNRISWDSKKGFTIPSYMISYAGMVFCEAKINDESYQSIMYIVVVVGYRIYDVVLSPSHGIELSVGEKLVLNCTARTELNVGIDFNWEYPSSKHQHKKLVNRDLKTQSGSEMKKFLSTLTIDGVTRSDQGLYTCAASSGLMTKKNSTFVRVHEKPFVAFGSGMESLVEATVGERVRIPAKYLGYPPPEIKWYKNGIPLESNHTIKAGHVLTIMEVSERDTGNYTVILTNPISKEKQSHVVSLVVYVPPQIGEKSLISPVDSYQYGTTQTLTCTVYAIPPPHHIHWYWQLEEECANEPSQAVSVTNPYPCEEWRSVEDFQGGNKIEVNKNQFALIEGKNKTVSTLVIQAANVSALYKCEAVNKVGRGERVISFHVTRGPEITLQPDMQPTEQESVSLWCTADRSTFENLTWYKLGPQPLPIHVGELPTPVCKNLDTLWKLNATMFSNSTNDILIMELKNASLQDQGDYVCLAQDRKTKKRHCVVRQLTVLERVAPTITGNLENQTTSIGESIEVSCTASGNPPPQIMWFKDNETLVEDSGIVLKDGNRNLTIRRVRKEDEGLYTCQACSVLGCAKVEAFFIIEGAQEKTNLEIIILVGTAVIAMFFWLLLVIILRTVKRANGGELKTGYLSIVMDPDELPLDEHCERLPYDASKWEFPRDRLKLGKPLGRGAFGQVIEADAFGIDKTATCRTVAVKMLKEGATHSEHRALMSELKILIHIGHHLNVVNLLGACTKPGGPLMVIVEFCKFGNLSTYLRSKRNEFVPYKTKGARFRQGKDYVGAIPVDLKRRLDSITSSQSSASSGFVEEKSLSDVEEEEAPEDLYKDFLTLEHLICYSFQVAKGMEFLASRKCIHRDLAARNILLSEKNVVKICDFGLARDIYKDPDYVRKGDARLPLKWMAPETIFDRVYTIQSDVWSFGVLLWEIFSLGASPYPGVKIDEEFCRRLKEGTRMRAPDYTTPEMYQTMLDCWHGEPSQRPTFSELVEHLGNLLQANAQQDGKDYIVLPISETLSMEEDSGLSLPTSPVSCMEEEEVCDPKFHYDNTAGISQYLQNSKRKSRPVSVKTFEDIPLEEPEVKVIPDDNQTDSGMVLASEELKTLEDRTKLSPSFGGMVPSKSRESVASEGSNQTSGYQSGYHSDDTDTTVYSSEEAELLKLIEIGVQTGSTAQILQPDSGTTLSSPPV
Sequence of IGF1R (P08069 31-1367): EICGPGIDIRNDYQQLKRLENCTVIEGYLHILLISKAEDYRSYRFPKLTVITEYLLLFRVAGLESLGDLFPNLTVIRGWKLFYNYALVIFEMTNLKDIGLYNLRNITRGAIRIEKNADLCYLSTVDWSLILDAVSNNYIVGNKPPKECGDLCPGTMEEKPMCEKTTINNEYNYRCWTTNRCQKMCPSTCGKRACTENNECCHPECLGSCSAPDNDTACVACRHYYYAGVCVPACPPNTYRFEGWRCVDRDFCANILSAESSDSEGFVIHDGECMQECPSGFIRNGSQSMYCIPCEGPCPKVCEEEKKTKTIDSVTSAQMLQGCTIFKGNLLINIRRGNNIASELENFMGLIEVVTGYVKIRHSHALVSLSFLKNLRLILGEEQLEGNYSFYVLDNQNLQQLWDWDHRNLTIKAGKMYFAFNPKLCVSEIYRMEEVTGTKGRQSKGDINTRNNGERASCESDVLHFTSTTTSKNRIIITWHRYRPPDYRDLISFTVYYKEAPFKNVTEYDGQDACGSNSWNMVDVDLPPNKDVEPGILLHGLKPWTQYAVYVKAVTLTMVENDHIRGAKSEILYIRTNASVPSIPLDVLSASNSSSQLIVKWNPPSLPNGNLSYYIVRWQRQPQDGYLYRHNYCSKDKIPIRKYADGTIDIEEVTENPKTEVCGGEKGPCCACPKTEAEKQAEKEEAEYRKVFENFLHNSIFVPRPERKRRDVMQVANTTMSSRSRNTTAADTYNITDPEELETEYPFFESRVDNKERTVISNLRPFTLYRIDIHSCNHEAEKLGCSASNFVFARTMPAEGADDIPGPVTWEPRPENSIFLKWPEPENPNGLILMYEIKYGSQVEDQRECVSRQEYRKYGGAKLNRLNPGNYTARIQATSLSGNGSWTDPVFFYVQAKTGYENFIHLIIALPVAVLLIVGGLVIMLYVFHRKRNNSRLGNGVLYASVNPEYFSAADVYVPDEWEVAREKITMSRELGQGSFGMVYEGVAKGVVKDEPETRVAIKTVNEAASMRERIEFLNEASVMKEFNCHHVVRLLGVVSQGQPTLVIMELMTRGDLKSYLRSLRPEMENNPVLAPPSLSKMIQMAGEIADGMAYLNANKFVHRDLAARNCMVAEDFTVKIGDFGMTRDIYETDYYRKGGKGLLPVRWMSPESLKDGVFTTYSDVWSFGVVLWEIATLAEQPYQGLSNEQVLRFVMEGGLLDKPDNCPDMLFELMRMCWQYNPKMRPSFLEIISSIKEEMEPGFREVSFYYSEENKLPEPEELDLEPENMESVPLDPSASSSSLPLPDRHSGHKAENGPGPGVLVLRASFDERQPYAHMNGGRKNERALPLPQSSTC
T1 sequence (Q05655 whole entry): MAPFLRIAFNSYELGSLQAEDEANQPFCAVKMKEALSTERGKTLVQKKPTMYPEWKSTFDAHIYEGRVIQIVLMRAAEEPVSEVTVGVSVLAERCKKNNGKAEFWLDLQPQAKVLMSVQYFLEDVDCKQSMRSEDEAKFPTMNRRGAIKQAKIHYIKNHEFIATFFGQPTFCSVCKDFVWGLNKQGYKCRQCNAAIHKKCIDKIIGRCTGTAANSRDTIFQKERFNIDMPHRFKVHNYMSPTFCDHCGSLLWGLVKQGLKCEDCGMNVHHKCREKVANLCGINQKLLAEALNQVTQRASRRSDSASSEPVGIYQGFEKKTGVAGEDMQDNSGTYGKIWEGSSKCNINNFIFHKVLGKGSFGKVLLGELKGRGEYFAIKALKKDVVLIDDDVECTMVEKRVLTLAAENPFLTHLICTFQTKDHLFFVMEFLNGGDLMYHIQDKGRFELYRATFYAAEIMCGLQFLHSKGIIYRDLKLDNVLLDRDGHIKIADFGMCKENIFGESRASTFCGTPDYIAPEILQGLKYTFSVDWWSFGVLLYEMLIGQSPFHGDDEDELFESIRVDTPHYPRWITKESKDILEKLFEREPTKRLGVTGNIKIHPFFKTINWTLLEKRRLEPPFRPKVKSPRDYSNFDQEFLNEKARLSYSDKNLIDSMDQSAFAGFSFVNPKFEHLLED
Sequence of c-Raf (P04049 whole entry): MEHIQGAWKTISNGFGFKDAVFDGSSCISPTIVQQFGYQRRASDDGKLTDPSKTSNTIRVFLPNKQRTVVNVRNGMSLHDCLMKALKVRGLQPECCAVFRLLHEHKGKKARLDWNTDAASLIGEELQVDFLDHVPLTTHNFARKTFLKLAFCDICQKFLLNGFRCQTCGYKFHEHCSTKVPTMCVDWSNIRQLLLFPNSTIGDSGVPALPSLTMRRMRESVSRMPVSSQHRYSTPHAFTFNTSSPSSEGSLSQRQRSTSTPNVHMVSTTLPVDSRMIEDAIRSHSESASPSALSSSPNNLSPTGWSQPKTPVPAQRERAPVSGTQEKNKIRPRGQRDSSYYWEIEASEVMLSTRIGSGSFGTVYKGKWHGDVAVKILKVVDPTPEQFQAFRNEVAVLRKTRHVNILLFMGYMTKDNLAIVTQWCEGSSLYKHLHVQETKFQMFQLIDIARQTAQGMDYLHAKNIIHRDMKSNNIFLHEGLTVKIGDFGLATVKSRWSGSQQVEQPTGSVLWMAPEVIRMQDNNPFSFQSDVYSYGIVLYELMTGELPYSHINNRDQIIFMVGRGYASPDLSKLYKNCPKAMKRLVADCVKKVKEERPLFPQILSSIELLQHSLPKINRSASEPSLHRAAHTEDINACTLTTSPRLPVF
Sequence of PKG1α (Q13976 whole entry): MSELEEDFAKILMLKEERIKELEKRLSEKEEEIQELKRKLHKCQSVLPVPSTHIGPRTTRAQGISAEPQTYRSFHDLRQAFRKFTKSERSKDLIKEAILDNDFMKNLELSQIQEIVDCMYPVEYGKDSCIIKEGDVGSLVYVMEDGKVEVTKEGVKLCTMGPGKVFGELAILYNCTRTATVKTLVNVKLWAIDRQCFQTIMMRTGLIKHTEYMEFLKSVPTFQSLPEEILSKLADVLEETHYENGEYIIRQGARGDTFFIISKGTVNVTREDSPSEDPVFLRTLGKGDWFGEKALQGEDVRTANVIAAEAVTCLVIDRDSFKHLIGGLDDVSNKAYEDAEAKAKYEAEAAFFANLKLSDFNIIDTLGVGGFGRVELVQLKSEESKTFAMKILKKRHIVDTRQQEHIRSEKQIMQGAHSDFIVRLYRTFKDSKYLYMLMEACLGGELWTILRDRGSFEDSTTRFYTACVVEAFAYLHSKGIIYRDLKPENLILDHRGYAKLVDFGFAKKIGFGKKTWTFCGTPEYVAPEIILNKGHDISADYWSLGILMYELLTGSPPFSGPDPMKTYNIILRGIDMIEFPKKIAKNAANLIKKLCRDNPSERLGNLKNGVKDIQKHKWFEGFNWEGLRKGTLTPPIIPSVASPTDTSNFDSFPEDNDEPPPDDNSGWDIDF
Sequence of PIM2 (Q9P1W9 whole entry): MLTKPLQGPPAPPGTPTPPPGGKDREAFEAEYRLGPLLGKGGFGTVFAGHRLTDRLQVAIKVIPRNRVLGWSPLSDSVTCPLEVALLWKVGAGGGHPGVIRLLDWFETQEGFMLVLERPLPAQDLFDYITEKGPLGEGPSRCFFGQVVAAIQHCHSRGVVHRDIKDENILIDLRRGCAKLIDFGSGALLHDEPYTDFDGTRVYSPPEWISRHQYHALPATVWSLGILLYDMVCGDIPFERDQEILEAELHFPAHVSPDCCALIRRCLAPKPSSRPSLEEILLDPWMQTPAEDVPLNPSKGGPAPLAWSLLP

O=C1NCCCc2c1oc1ccc(O)cc21 [CID755673, 7-Hydroxy-2,3,4,5-tetrahydro-[1]benzoxolo[2,3-c]azepin-1-one]
inhibition at 10 µM (JNK2): 36%
inhibition at 10 µM (ABL): 8%
inhibition at 10 µM (PKG1β): 11%
inhibition at 10 µM (p70S6K): 44%
inhibition at 10 µM (CHK2): 4%
inhibition of PKCδ (PKCδ): did not inhibit
inhibition of protein kinase B (AKT/PKB) [1]: did not inhibit
inhibition of PKCα (PKCα): did not inhibit
inhibition at 10 µM (PKG1α): 13%
cell cycle arrest (PC3 cells [2]): caused G2/M phase cell cycle arrest
Average % Inhibition AMPK (AMPK): 35%
inhibition at 10 µM (PIM2): 6%
inhibition at 10 µM (MSK1): 7%
inhibition at 10 µM (p38a): 2%
inhibition at 10 µM (c-Raf): 2%
inhibition of PKCβI (PKCβI): did not inhibit
inhibition at 10 µM (PKCη): 40%
inhibition at 10 µM (AurA): 7%
inhibition of CAMKIIα (CAMKIIα): did not inhibit
inhibition at 10 µM (IBSR): 3%
inhibition at 10 µM (PAK2): 3%
inhibition of CAK (CAK): did not inhibit
inhibition at 10 µM (IGF1R): -2%
inhibition at 10 µM (SYK): -8%
inhibition at 10 µM (Erk2): 31%
inhibition at 10 µM (KDR): 8%

O=C1NCCSc2c1sc1ccc(O)cc21 [kb-NB142-70]
effect on cell proliferation (PC3 cells [3]): most potent among the compounds

Source: paper PMC2873968, “Novel protein kinase D inhibitors cause potent arrest in prostate cancer cell growth and motility” (BMC Chemical Biology, 2010)
